Assay results from patent US9266817B2, “Catecholamine derivatives for obesity and neurological disorders” (EMORY UNIVERSITY, priority 2009, dated 2016).
Entries after “also recorded” stand apart in the source; their conditions may differ.

Columns and labels:
TrkB [1] = assay: TrkB activation in mouse brain after administration of catecholamine derivatives (anti-p-TrkB-Y-816 immunoblot); format: in vivo; details: for Time at which TrkB activity peaked: 50 mg/kg orally; for TrkB activation in the brains of the mice: 50 mg/kg orally (in saline), C57BL/6J mice; for Oral bioavailability: mice; for Minimal dosage required to activate TrkB: orally, mice sacrificed after 4 hours; for TrkB activation in mouse brains: via drinking water or intraperitoneal injection
Method: To explore whether these compounds could stimulate TrkB in vivo, 50 mg/kg of Compound I-11, Compound I-8, and Compound I-2 (2-(methylamino)-3′,4′-dihydroxy-acetophenone) were each orally administered (in saline) to 2-month-old C57BL/6J mice. The mice were sacrificed at different time points and TrkB activation in the brains of the mice was monitored by immunoblotting with anti-p-TrkB-Y-816 antibody.
To determine the minimal required dosages for Compound I-11 and Compound I-8, different doses of the compounds were each orally administered to mice. The mice were sacrificed after 4 hours, and the brain lysates were analyzed by immunoblotting with anti-p-TrkB-Y-816 antibody.
To search for orally bioactive catecholamines, catecholamine derivatives described herein were screened using primary neuronal cultures. The in vitro active compounds, Compounds I-8 and I-11, were adminstered into two to three month old C57BL/6J mice orally, intraperitoneally, and in drinking water. For oral administration, the mice were administered 0 mg (control), 5 mg, 10 mg, 20 mg, or 50 mg of Compound I-8 or Compound I-11. After 4 hours, TrkB phosphorylation in mouse brain was monitored by analyzing the brain lysates using immunoblotting with anti-p-TrkB-Y-816 antibody. The ratios of p-TrK/total TrkB were quantified (FIG. 27A). For intraperitoneal administration, 50 mg/kg of Compound I-8 or Compound I-11 were intraperitoneally injected into the mice. The brain lysates were prepared at different times (0 hr, 1 hr, 2 hr, 4 hr, and 8 hr) and were analyzed by immunoblotting with anti-p-TrkB-Y-816 antibody (FIG. 27B). Compound I-8 and Compound I-11 were dissolved in drinking water and given to mice. After 24 h, the brain lysates were prepared and analyzed by immunoblotting with anti-p-TrkB-Y-816 antibody (FIG. 27C). […] Therefore, these compounds are useful in treating various neurological or neuropsychiatric diseases as described herein.

mice = assay: Forced swim test; format: in vivo; details: for Swimming immobility: 20 mg/kg intraperitoneally, adult male mice; for Immobility time after 1NMPP1 treatment: TrkB F616A knockin mice, 1NMPP1 pretreatment
Method: Accumulating evidence supports that BDNF plays an essential role in mediating antidepressants' therapeutic effects. Infusion of exogenous BDNF into hippocampus or brain stem has antidepressant-like behavioral effect. A forced swim test is broadly used for screening of potential antidepressant drugs and is widely used to measure antidepressant activity. To explore whether Compound I-11 (ADPP) and Compound I-8 (DDAP) have antidepressant effects like BDNF, forced swim tests were conducted. Adult male mice (2-3 months old, n=8) were randomly submitted, without a pre-swim, to a forced swim test of 6 minutes with immobility recorded in the last 4 minutes. Mice were injected intraperitoneally with saline, Compound I-11 (20 mg/kg), or Compound I-8 (20 mg/kg). The mice were allowed to adapt to the test room for 2 days, and the mice were placed in a clear glass cylinder with a diameter of 16 cm, half-filled with clear water at 24° C.
To assess whether the behavior responses caused by catecholamine derivatives is mediated by TrkB receptor, TrkB F616A knockin mice were utilized. The mice were subjected to saline or 1NMPP1 inhibitor pretreatment.

TrkB [2] = target: T1, TrkB (Rattus norvegicus, UniProt Q63604); assay: Screening of catecholamine derivatives for TrkB activation in primary cortical neurons (anti-p-TrkB-Y-816 immunoblot); format: cell-based; details: 500 nM, 30 min
T1 construct: endogenous in cells; host or cells: primary rat cortical and hippocampal neurons
Method: Catecholamines can directly bind to the kinase domain of the TrkB receptor and activate it. However, the catecholamines are not able to cross through the blood brain barrier. […] Cortical neurons (7 DIV cortical neurons from 18 day old Sprague Dawley rat embryos) were treated with 500 nM of the selected compound for 30 min and cell lysates were prepared. The cell lysates ([…]) were analyzed for TrkB activation by immunoblotting with anti-p-TrkB-Y-816 antibody.
Catecholamine derivatives as described herein, including Compound I-2, Compound I-5, Compound I-7, Compound I-8, Compound I-9, Compound I-10, Compound I-11, Compound I-14, Compound I-15, Compound I-17, Compound I-18, and isoproterenol, were screened for TrkB activation in primary cortical neurons. Cortical neurons (7 DIV cortical neurons from 18 day old Sprague Dawley rat embryos) were treated with 500 nM of the selected compound for 30 min and cell lysates were prepared. The cell lysates ([…]) were analyzed for TrkB activation by immunoblotting with anti-p-TrkB-Y-816 antibody.

TrkB F616A [3] = target: T2, TrkB F616A (Mus musculus, UniProt P15209, F616A); assay: TrkB phosphorylation in TrkB F616A or TrkA F592A cortical neurons pretreated with K252a or 1NMPP1; format: cell-based, mice; details: primary TrkB F616A cortical neurons, 100 nM inhibitor 30 min, 500 nM compound
T2 construct: endogenous in cells; host or cells: primary cortical neurons from TrkB F616A knock-in mice
Method: (§1) TrkB F616A mice were pretreated with 1NMPP1 (50 μM) before L-DOPA or DOPS administration.
(§2) On day 7, the primary cortical neurons were pretreated with 100 nM K252a or 1NMPP1 for 30 min, followed by 500 nM ADPP and DDAP. Cell lysates were analyzed by Western blotting.

TrkB F616A knockin mice = assay: Kainic acid-induced neuronal apoptosis in TrkB F616A knockin mice (immunoblotting and Caspase-3 ELISA); format: in vivo; details: 50 mg/kg orally 2 hours before KA 20 mg/kg
Method: To determine whether Compound I-11 (ADPP) and Compound I-8 (DDAP) protect neurons from KA-induced apoptosis, TrkB F616A knockin mice were pretreated with inhibitor 1NMPP1 (16.6 ng/kg) 2 days before the experiment. Compound I-8 (DDAP) or Compound I-11 (ADPP) (50 mg/kg) was orally injected into the mice 2 hours before kainic acid (KA) administration (20 mg/kg). Brain lysates were analyzed by immunoblotting and Caspase-3 ELISA. […] The extent of the protective effect correlates with TrkB activation status by these compounds. Active Caspase-3 ELISA correlated with the immunoblotting results (FIG. 28B, right panel).

TrkB [4] = target: T1, TrkB; assay: Immunoblotting of TrkB phosphorylation in primary cortical neurons treated with catecholamines; format: cell-based; details: cortical neurons
Method: Primary cultured rat cortical neurons were prepared as follows. E17 rat pups were decapitated and cortex was extirpated, cross chopped and suspended by pipetting for separation in 5% fetal calf serum (FCS), 5% horse serum (HS) DMEM. The cell suspension was then centrifuged at 250×g for 5 min. This operation was repeated. Cells were seeded into polyethyleneimine-coated 10 cm^2 dishes and 12-well plates including coated-coverslips and incubated at 37° C. in 5% CO2/95% air. After 3 hours, the culture medium was changed to Neurobasal containing B-27 supplement (Invitrogen; Carlsbad, Calif.) and incubated for 4 days. For maintenance, half of the culture medium was changed to fresh Neurobasal/B27 in every 4 days. After 1 week, the dished cultured neurons were ready for use.
To explore whether monoamine neurotransmitters, including catecholamines (see, e.g., FIG. 1), could stimulate TrkB activation, hippocampal neurons were treated with 300 nM of catecholamines, serotonin, and melatonin for 30 min.

TrkB F616A [5] = target: T3, TrkB F616A (Mus musculus, UniProt P15209); assay: TrkB phosphorylation in TrkB F616A or TrkA F592A cortical neurons pretreated with K252a or 1NMPP1; format: cell-based, mice
T3 construct: endogenous in cells; host or cells: primary cortical neurons from TrkB F616A knock-in mice
Method: as §1, §2

T1 sequence (Q63604 32-821): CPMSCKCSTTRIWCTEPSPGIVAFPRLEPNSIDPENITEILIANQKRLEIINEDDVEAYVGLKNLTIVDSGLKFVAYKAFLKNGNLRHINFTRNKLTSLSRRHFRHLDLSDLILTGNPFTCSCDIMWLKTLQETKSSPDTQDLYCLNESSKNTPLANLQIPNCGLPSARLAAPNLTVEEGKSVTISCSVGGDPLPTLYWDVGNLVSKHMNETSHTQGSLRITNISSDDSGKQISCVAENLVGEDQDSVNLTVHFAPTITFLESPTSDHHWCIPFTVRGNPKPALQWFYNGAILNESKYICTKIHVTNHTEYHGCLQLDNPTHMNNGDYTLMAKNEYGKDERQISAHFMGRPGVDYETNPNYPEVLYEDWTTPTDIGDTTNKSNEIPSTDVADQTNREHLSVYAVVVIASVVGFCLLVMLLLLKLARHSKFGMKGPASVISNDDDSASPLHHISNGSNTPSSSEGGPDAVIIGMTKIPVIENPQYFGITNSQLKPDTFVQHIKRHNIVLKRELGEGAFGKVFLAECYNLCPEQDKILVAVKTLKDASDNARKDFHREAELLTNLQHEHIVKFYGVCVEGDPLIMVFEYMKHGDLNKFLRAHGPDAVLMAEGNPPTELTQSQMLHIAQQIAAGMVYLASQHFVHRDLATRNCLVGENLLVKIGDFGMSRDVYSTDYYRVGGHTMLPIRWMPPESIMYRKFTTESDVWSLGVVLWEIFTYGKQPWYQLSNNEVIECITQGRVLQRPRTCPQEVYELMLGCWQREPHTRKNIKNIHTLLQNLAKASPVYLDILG
T2 sequence (P15209 32-821 F616A): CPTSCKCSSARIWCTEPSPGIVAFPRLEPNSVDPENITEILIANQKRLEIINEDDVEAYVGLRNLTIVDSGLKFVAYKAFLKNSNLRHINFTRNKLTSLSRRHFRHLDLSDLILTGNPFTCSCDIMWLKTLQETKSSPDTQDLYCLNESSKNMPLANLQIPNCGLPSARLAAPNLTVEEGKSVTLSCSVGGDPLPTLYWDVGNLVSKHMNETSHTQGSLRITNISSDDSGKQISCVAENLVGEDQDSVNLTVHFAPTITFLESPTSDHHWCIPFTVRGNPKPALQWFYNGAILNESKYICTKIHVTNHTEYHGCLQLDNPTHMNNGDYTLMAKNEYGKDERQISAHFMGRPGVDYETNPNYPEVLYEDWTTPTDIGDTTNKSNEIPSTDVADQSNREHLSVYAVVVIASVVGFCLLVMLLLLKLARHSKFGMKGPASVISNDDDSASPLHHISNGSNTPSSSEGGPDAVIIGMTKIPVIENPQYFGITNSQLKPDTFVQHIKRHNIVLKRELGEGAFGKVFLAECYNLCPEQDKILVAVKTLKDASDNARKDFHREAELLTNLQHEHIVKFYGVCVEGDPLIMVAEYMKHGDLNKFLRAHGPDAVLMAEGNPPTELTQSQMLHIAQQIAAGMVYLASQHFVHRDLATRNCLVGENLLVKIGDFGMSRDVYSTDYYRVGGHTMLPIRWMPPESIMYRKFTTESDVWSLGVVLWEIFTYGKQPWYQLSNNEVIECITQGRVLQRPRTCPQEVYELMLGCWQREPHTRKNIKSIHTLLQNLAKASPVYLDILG
T3 sequence (P15209 32-821 F616A): as above

SMILES: CN(C)CC(=O)c1ccc(O)c(O)c1 [Compound I-8, α-dimethylamino-3′,4′-dihydroxyacetophenone]
- Time at which TrkB activity peaked (TrkB [1]): 8 h
- TrkB activation in the brains of the mice (TrkB [1]): potently activated TrkB
- Oral bioavailability (TrkB [1]): orally bio-available
- Passage through the blood brain barrier (TrkB [1]; mouse, in vivo, po): can pass through the blood brain barrier
- Minimal dosage required to activate TrkB (TrkB [1]): 20 mg/kg
- TrkB activation in mouse brains (TrkB [1]): potently activate TrkB
- Swimming immobility (mice): significantly decreased
- Immobility time after 1NMPP1 treatment (mice): no significant effect
- TrkB activation in primary cortical neurons (TrkB [2]): prominently activated TrkB; also recorded: prominent stimulatory effect
- TrkB activation by the compound after K252a or 1NMPP1 pretreatment (TrkB F616A [3]): selectively blocked by 1NMPP1 but not K252a
- Kainic acid (KA)-provoked neuronal cell death in mouse brain (TrkB F616A knockin mice): potently suppress; also recorded: robustly repressed

SMILES: CC(N)C(=O)c1ccc(O)c(O)c1 (stereo not drawn) [Compound I-11, 2-amino-3′,4′-dihydroxy-propiophenone]
- Time at which TrkB activity peaked (TrkB [1]): 8 h
- TrkB activation in the brains of the mice (TrkB [1]): potently activated TrkB
- Oral bioavailability (TrkB [1]): orally bio-available
- Passage through the blood brain barrier (TrkB [1]; orally administered, mouse brain): can pass through the blood brain barrier
- Minimal dosage required to activate TrkB (TrkB [1]): 10 mg/kg
- TrkB activation in mouse brains (TrkB [1]): potently activate TrkB
- Swimming immobility (mice): significantly decreased
- Immobility time after 1NMPP1 treatment (mice): still active in decreasing immobility
- TrkB activation in primary cortical neurons (TrkB [2]): prominently activated TrkB; also recorded: prominent stimulatory effect
- TrkB activation by the compound after K252a or 1NMPP1 pretreatment (TrkB F616A [3]): selectively blocked by 1NMPP1 but not K252a
- Kainic acid (KA)-provoked neuronal cell death in mouse brain (TrkB F616A knockin mice): potently suppress; also recorded: robustly repressed

SMILES: COC(=O)[C@@]1(O)C[C@H]2O[C@]1(C)n1c3ccccc3c3c4c(c5c6ccccc6n2c5c31)C(=O)NC4 [Compound K252a]
- Effect of K252a pretreatment on catecholamine-triggered TrkB tyrosine phosphorylation (TrkB [4]): robustly blocked
- Effect of inhibitor on catecholamine-induced TrkB activation (TrkB F616A [5]): robustly inhibited
